Laboratory results taken from patent US10104882B2, “Methods and compositions for preventing and treating electrophile-mediated toxicities” (priority 2013, dated 2018).
Entries after “also recorded” stand apart in the source; their conditions may differ. Where two headings read alike, the source gives them in different places.

Legend:
[1] = Prevention of NAPQI-induced GSH sulfhydryl loss by 1,3-dicarbonyl compounds (in chemico); assay type: biochemical; settings: for prevention of NAPQI-induced thiol loss: equimolar concentrations (50 μM), pH 7.4
Source text: FIG. 3. […] Numbers in parentheses are respective IC50 values.
FIG. 4. […] Numbers in parentheses are respective IC50 values.
(§1) However, acrolein and other electrophiles used in this research are α,β-unsaturated carbonyls, whereas NAPQI and pBQ are quinone derivatives. […] Although both compounds are relatively acidic (low pKa values), thiol protection is limited since the corresponding adduct reactions involving the enolates of these acids are likely to be reversible. […] 2-ACP was the most protective 1,3-dicarbonyl compound tested in this and other studies^54 and was, therefore, the focus of subsequent research. […] 2-ACP (50 μM) was also effective at protecting thiol loss induced by pBQ, the degradation product of NAPQI (data not shown). […] These electrophiles target nucleophilic sulfhydryl groups that play critical roles in protein function and cellular redox balance.

[2] = system: Rat striatal synaptosomes; settings: acrolein 1-1000 μM with cytoprotectant 500 μM; cited from earlier work
[3] = system: MN9D cells; settings: cited from earlier work
[4] = Ionization parameters (pKa, % anion); assay type: physicochemical; settings: for fraction present as nucleophilic enolate/thiolate anion: physiological pH (7.4); for relative enolate concentration in solution: pH 7 / neutral conditions
[5] = Electrophile concentration-dependent loss of GSH sulfhydryl groups (in chemico); assay type: biochemical; design: Log IC50: unit not given here; settings: for Log IC50: logarithmic value, electrophile concentration that causes 50% loss of the GSH sulfhydryl group
Source text: as §1

[6] = cited from earlier work; for effect on rate of acrolein-induced sulfhydryl (thiol) loss: physiological conditions (pH 7.4); for thiol protection against acrolein-induced thiol loss: pH 9.0
[7] = system: rat liver; experiment: Acute ischemia-reperfusion injury of rat liver; assay type: in vivo, rats
Description: FIG. 9. Effect of 2-ACP on liver ischemia. 2-ACP (2.40 mmol/kg) or vehicle was injected i.p. 10 mins before clamping the portal vasculature for 45 mins. At the completion of the Ischemic phase, clamps were removed and the liver was reperfused for 180 mins. Following reperfusion, blood samples were removed for analysis of liver enzymes (ALT, AST) and LDH in plasma. Joining lines indicate statistically significant differences in treatment groups at ***P<0.001 level of significance.
FIG. 10. Effect of 2-ACP on liver reperfusion. 2-ACP (2.40 mmol/kg) or vehicle was injected i.p. 10 mins before restoration of hepatic circulation (reperfusion phase). At the completion of reperfusion, blood samples were removed for analysis of liver enzymes (ALT, AST) and LDH (a general enzyme indicator of tissue injury) in plasma. Joining lines indicate statistically significant differences in treatment groups at ***P<0.001 level of significance.
FIG. 11. […] At the completion of reperfusion, blood samples were removed for analysis of liver enzymes (ALT, AST) and LDH (a general enzyme indicator of tissue injury) in plasma. Joining lines indicate statistically significant differences in treatment groups at ***P<0.001 level of significance.
IR injury is the pathophysiological basis for stroke, myocardial infarction and other organ failure. It is also an underlying cause of allograft rejection following tissue transplantation. To investigate the possibility that 2-ACP and other nucleophilic dicarbonyl derivatives might be useful in preventing IR-mediated organ damage, rats were anesthetized and I/R was induced by clamping the portal vein and hepatic artery using commercially available microclips placed at the porta hepatis. The ischemic state was maintained for 45 mins, which affected approximately 70% of the liver mass. Following removal of the microclamps, hepatic reperfusion was maintained for 180 min. Animals were then sacrificed and plasma samples were taken for subsequent analysis of lactate dehydrogenase (LDH; a general enzyme indicator of cell injury) and liver enzymes (AST and ALT). […] A sham group (laparotomy only) provided baseline data for the appearance of liver enzyme in plasma. […] This level of hepatocyte leakage indicates substantial irreversible cell injury. […] Thus, prior 2-ACP administration is able to diminish the pathophysiological disposition of the ischemic phase. Further, amelioration of the ischemic phase truncates subsequent culmination of hepatocyte injury during reperfusion. To determine whether hepatoprotection was phase-specific and dose-dependent, 2-ACP (1.20-2.40 mmol/kg) was injected i.p. 10 mins prior to the restoration of hepatic circulation (reperfusion phase).

[8] = system: MN9D cells; settings: cited from earlier work; for protection from acrolein-induced cell loss: pre-incubation
[9] = system: male C57 BL mice; experiment: Mouse model of oral acetaminophen (APAP) overdose hepatotoxicity/lethality; assay type: in vivo; settings: for changes in hepatic parameters, compound alone: no APAP
Description: FIG. 7A-7B. […] Hepatoprotectants were administered 20 mins before (−20), 20 mins after (+20) or 60 mins after (+60) APAP intoxication.
A separate group received the PEG400 vehicle 20 mins prior to AAP. […] Vehicle control mice (n=10) received sequential injections of PEG400 (i.p. followed by oral). At several times post-AAP administration (2, 6, 24, 48 and 168 hrs), groups of mice were anesthetized in a carbon dioxide chamber and heparinized blood samples were collected. Samples were centrifuged and resulting serum was retained for analyses (see below). Livers were also excised, weighed and tissue samples were collected for histopathological evaluation. Remaining tissue was snap frozen in liquid nitrogen. Hepatotoxicity was determined by quantification of serum alanine aminotransferase (ALT) and aspartate aminotransferase (AST) using colorimetric assays. Serum lactate dehydrogenase (LDH) was also measured as an index of generalized AAP-induced organ toxicity. To evaluate the extent of cellular oxidative stress in liver homogenates, the unsaturated aldehyde by-products of lipid peroxidation, HNE and malondialdhyde (MDA), were determined according to a modification of the Gerard-Monnier et al. method^27. In addition, soluble thiol contents were measured in homogenates according to LoPachin et al.^44.

[10] = Protection against pBQ-induced thiol loss (in chemico); assay type: biochemical; settings: 50 μM
Source text: as §1

[11] = in chemico; cited from earlier work
[12] = i.p. 2.40 mmol/kg 10 mins before ischemia (45 min), reperfusion 180 min
[13] = i.p. 10 mins before reperfusion, 2-ACP 1.20-2.40 mmol/kg, equimolar NAC

In the case of O=C1CCC(=O)C1 [CPD, 1,3-cyclopenanedione], the “prevention of NAPQI-induced thiol loss” value [1] is listed as “minimal thiol protection”, the “change in acrolein IC50 for synaptosomal DA transport inhibition” value [2] is listed as “relatively ineffective” and the “protection against H2O2-induced cell death” value [3] is listed as “ineffective”.

With N[C@@H](CCC(=O)N[C@@H](CS)C(=O)NCC(=O)O)C(=O)O [GSH, glutathione] the pKa ([4]; Table 1, read-out: pKa) was 8.6 and the “% Anion (pH = 7.4)” value [4] was 5.9%.

With O=C1C=CC(=O)C=C1 [pBQ, p-benzoquinone] the “Log IC50” value [5] was 1.06.

In the case of CC1(C)CC(=O)CC(=O)C1 [DMD, dimedone], the pKa [4] is listed as 5.3, the “fraction present as nucleophilic enolate/thiolate anion” value [4] is listed as 99% and the “effect on rate of acrolein-induced sulfhydryl (thiol) loss” value (“effect on rate … (thiol) loss” for short) [6] is listed as “substantially slowed”. For the same compound, the “prevention of NAPQI-induced thiol loss” value [1] was “ineffective” and the “change in acrolein IC50 for synaptosomal DA transport inhibition” value [2] was “more modest”.

In the case of CC(=O)N[C@@H](CS)C(=O)O [NAC, N-acetylcysteine], the pKa ([4]; Table 1, read-out: pKa) is reported as 9.5, the “% Anion (pH = 7.4)” value [4] is reported as 0.8% and the pKa ([4]; read-out: pKa) is reported as 9.6. For the same compound, the “prevention of NAPQI-induced thiol loss” value [1] was “only minimal protection”, the “change in acrolein IC50 for synaptosomal DA transport inhibition” value [2] was “more modest” and the “plasma liver enzymes (ALT, AST) and LDH after I/R” value (“plasma liver enzymes” below) [7, 12] was “did not prevent I/R liver injury”. The “plasma liver enzymes” value [7, 13] was “did not prevent I/R liver injury”, the “protection from acrolein-induced cell loss” value [8] was “completely prevented” and the “changes in hepatic parameters, compound alone” value [9] was “neither NAC nor ACP alone caused significant changes”. The “protection against H2O2-induced cell death” value [3] was “significantly less efficacious”.

For CC1(C)OC(=O)CC(=O)O1 [MA, Meldrum's acid], the “effect on rate … (thiol) loss” value [6] is given as “substantially slowed”, the “prevention of NAPQI-induced thiol loss” value [1] is given as “ineffective” and the “change in acrolein IC50 for synaptosomal DA transport inhibition” value [2] is given as “more modest”.

In the case of CCOC(=O)CC(=O)OCC [DEM, diethyl malonate], the “relative enolate concentration in solution” value [4] is listed as under 0.1%, the “thiol protection against acrolein-induced thiol loss” value [6] is listed as “significantly increased” and the “effect on rate … (thiol) loss” value [6] is listed as “Neither diethyl malonate (DEM; a β-diester) nor 2,5-hexanedione (HD), a γ or 1,4-diketone, affected the rate of sulfhydryl loss”. For the same compound, the “change in acrolein IC50 for synaptosomal DA transport inhibition” value [2] was “neither DEM nor HD significantly affected the acrolein IC50” and the “protection from acrolein-induced cell loss” value [8] was “neither DEM nor HD was effective”.

For CC(=O)CC(=O)C(F)(F)F [TFPD, 1,1,1-trifluoro-2,4-pentanedione], the “relative enolate concentration in solution” value [4] is given as 99%, the pKa ([4]; read-out: pKa) is given as 4.7 and the “thiol protection against acrolein-induced thiol loss” value [6] is given as “did not increase”. The “effect on rate … (thiol) loss” value [6] was “some thiol protection”, the “change in acrolein IC50 for synaptosomal DA transport inhibition” value [2] was “relatively ineffective” and the “protection from acrolein-induced cell loss” value [8] was “moderately protective”. For the same compound, the “fold protection against H2O2-induced cytotoxicity” value [3] was 3 fold.

For CC(=O)CC(C)=O [AcAc, acetylacetone], the pKa [4] is listed as 9.0, the “thiol protection against acrolein-induced thiol loss” value [6] is listed as “virtually complete” and the “effect on rate … (thiol) loss” value [6] is listed as “substantially slowed”. For the same compound, the “prevention of NAPQI-induced thiol loss” value [1] was “minimal thiol protection” and the “protection from acrolein-induced cell loss” value [8] was “moderately protective”.

In the case of C=CC=O [Acrolein, acrolein], the “Log IC50” value [5] is given as 1.72 and the CC50 ([8]; read-out: LC50 (acrolein concentration producing 50% cell lethality), acrolein 50-150 μM) is given as 96 µM.

For CC(=O)C1CCCC1=O (stereo not shown) [2-ACP, 2-acetylcyclopentanone], the “% Anion (pH = 7.4)” value [4] was 28.5%, the “fraction present as nucleophilic enolate/thiolate anion” value [4] was about 30% and the “protection of thiol loss induced by pBQ” value [10] was “effective”. The “effect on rate … (thiol) loss” value [6] was “completely prevented”, the “thiol protection against NAPQI over concentration range” value ([1]; 2-ACP 25-200 μM, NAPQI 2-128 μM) was “provides thiol protection over a broad range of concentrations” and the “prevention of NAPQI-induced thiol loss” value [1] was “three-fold increase in the respective IC50 value”. The “change in acrolein IC50 for synaptosomal DA transport inhibition” value [2] was “largest increases”, the “plasma liver enzymes” value [7, 12] was “considerable reductions in the plasma appearance of liver enzymes” and the “plasma liver enzymes” value [7, 13] was “substantial hepatocyte dose-dependent protection”. For the same compound, the “protection from acrolein-induced cell loss” value [8] was “completely prevented”, the “changes in hepatic parameters, compound alone” value [9] was “neither NAC nor ACP alone caused significant changes” and the “protection from APAP-induced lethality (survival)” value (“protection … (survival)” below) ([9]; i.p. 2.40 mmol/kg, 20 min after (+20) APAP) was “complete protection”. For the same compound, the “protection … (survival)” value ([9]; i.p. 2.40 mmol/kg, 20 min before oral APAP 500 mg/kg, 7 day period) was “completely prevented APAP lethality; also recorded: complete protection”, the “protection … (survival)” value ([9]; i.p. 2.40 mmol/kg, 60 min after (+60) APAP) was “ineffective” and the “biochemical indices of hepatocyte death (plasma ALT, AST, LDH) and oxidative stress (liver thiol loss, unsaturated aldehyde content)” value ([9]; i.p. pretreatment, oral APAP) was “prevented APAP-induced liver cell death”. For the same compound, the “histopathology: liver centrilobular necrosis” value ([9]; i.p. pretreatment, oral APAP) was “prevented the liver centrilobular necrosis”, the “dose-dependency of protection from APAP-induced lethality” value ([9]; i.p. pretreatment, 2-ACP 0.80-2.40 mmol/kg, NAC 4.80-7.20 mmol/kg) was “dose-dependent, although it occurred over a narrow dose-range” and the “oral hepatoprotection at increased dose” value ([9]; oral 4.80 mmol/kg) was “improved oral 2-ACP hepatoprotection”. The “protection … (survival)” value ([9]; oral gavage 2.40 mmol/kg, 20 min before oral APAP) was “modest improvements in APAP survival rate”, the “oral hepatoprotection with buffered gavage solution” value ([9]; oral, HEPES buffer pH 9.0) was “improved oral 2-ACP hepatoprotection” and the “protection against H2O2-induced cell death” value [3] was “completely prevented cell death”.

For CC(=O)CCC(C)=O [HD, 2,5-hexanedione], the “effect on rate … (thiol) loss” value [6] is given as “Neither diethyl malonate (DEM; a β-diester) nor 2,5-hexanedione (HD), a γ or 1,4-diketone, affected the rate of sulfhydryl loss”, the “change in acrolein IC50 for synaptosomal DA transport inhibition” value [2] is given as “neither DEM nor HD significantly affected the acrolein IC50” and the “protection from acrolein-induced cell loss” value [8] is given as “neither DEM nor HD was effective”. For the same compound, the “protection against H2O2-induced cell death” value [3] was “ineffective”.

With CCN1C(=O)C=CC1=O [NEM, N-ethylmaleimide] the “Log IC50” value [5] was 1.23.

For COc1cc(/C=C/C(=O)CC(=O)/C=C/c2ccc(O)c(OC)c2)ccc1O [Curcumin, curcumin], the pKa ([4]; Table 1, read-out: pKa) was 7.8 and the “% Anion (pH = 7.4)” value [4] was 28.5%.

With CC(C)(C)C1=CC(=O)C=CC1=O [tBQ, tert-butylquinone] the “Log IC50” value [5] was 1.24.

With CC(=O)Nc1ccc(O)cc1 [APAP, N-acetyl-p-aminophenol] the “lethality of oral APAP overdose” value ([9]; oral 500 mg/kg, mice, within 72 hrs) was about 90%.

In the case of CC(=O)N=C1C=CC(=O)C=C1 [NAPQI, N-acetyl-p-benzoquinone imine], the “Log IC50” value [5] is listed as 0.92, the IC50 ([5]; read-out: IC50 for NAPQI-induced GSH loss, NAPQI alone, NAPQI 2-128 μM, no protectant) is listed as 9.1 µM and the “second order rate constant for reaction with cysteine sulfhydryl groups” value [11] is listed as 32000 M⁻¹ s⁻¹.
